According to patent US20120270875A1, “PYRIMIDINE AMIDE COMPOUNDS” (priority 2011, published 2012):

Biological target: sLFA-1/ICAM-1 (Homo sapiens, UniProt P05107+P20701, DEL701-769)
Assay: sLFA-1/ICAM-1 ELISA
Format: binding
Settings: sLFA-1 coated plates, 5dICAM-Fc binding, ELISA; read-out: LFA-1/ICAM (IC50)
Method: sLFA-1/ICAM-1 ELISA and Mac-1/ICAM-1 ELISA
Plates were coated with either 50 μl/well of 2.0 ug/ml solution of sLFA-1 or Mac-1 receptor in divalent cation buffer (1 mM MnCl2, 0.14M NaCl, 20 mM HEPES pH 7.2) at 4° C. overnight. Two hundred fifty μl of blocking buffer (1% BSA in divalent cation buffer) was added to each well 1 hour at 37° C. Plates were washed 3 times with wash buffer (TBS/0.05% Tween-20/1 mM MnCl2). The compound to be tested was solubilized in DMSO. A series of 1:3 dilutions were performed to achieve a concentration range of 0.45 nM-3 uM. Fifty μl of binding buffer (0.5% BSA in divalent cation buffer)/1% DMSO and 50 μl of the solutions to be tested were added to the appropriate wells and incubated for 1 hour. Fifty μl of 5dICAM-Fc (27 ng/ml) was added to the appropriate wells and 50 μl binding buffer was added to non-specific binding wells and incubated for 2 hours and washed. One hundred μl of 1:4000 HRP-goat anti-huIgG was added to each well and incubated for 1 hour and washed. One hundred μl of 1:1 TMB solution was added to each well and developed for 20 min at room temperature. Color development was stopped by adding 100 μl H3PO4 to each well. Absorbance was measured at 450 nm.

Sequence of sLFA-1/ICAM-1 (P20701 26-1090 limits assumed, stated change not applied): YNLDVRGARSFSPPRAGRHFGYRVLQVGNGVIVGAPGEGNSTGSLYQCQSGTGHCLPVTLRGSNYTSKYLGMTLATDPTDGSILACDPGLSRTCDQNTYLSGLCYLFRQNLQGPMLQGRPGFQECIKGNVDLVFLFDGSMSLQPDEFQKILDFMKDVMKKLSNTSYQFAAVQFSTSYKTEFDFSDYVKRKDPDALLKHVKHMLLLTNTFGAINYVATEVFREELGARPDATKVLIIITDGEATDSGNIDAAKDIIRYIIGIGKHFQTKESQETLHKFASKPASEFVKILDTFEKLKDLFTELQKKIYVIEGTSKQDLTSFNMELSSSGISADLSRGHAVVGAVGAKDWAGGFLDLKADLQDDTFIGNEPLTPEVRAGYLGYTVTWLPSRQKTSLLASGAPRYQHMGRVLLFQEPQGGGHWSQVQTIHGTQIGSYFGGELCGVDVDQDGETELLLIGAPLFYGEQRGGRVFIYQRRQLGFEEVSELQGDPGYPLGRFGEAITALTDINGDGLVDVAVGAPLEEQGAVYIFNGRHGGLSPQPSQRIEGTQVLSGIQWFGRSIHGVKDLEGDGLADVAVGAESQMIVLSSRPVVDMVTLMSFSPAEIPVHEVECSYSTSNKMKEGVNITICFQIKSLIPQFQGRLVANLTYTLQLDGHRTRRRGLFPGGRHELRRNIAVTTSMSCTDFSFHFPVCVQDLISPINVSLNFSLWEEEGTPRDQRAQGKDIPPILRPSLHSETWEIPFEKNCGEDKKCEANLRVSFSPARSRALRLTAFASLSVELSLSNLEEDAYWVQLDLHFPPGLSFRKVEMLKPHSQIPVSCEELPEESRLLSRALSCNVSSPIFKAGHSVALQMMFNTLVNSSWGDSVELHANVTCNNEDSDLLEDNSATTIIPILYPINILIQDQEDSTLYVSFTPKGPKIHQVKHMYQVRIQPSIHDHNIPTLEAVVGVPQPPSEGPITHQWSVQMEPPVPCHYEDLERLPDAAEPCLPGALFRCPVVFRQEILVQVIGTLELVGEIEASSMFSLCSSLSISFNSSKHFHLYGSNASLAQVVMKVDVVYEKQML
Sequence of sLFA-1/ICAM-1 (P05107 23-700 limits assumed, stated change not applied): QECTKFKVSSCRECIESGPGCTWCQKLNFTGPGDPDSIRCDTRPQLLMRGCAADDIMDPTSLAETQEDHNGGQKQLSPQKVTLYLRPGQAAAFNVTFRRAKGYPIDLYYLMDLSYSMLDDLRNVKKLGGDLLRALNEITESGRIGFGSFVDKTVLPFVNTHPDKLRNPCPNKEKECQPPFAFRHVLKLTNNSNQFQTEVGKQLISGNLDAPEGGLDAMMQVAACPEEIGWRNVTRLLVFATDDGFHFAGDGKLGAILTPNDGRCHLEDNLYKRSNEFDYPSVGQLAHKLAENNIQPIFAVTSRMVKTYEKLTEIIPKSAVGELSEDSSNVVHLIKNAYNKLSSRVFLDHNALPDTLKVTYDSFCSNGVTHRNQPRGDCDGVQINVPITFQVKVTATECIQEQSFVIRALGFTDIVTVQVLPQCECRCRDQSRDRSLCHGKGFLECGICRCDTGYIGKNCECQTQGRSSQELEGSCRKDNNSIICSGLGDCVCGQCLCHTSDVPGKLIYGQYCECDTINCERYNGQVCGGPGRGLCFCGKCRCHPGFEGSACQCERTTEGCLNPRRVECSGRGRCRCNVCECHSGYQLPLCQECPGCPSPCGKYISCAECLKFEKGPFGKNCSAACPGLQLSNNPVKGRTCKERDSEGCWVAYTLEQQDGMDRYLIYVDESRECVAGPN

IC50 [nM] | SMILES
329 | Cc1ccc(CCCNc2nc(C)c(C(=O)N[C@@H](CNC(=O)c3cccs3)C(=O)O)c(C)n2)cc1O [Example 67, (S)-2-({2-[3-(3-Hydroxy-4-methyl-phenyl)-propylamino]-4,6-dimethyl-pyrimidine-5-carbonyl}-amino)-3-[(thiophene-2-carbonyl)-amino]-propionic acid]
291 | Cc1nc(NCCCc2cc(O)ccc2Cl)nc(C)c1C(=O)N[C@@H](CNC(=O)c1cccs1)C(=O)O [Example 68, (S)-2-({2-[3-(2-Chloro-5-hydroxy-phenyl)-propylamino]-4,6-dimethyl-pyrimidine-5-carbonyl}-amino)-3-[(thiophene-2-carbonyl)-amino]-propionic acid]
28 | Cc1nc(NCCCc2ccc(O)cc2)nc(C)c1C(=O)N[C@@H](CNC(=O)c1cccs1)C(=O)O [Example 69, (S)-2-({2-[3-(4-Hydroxy-phenyl)-propylamino]-4,6-dimethyl-pyrimidine-5-carbonyl}-amino)-3-[(thiophene-2-carbonyl)-amino]-propionic acid]
≥ 3000 | Cc1nc(NCCCc2cccc(O)c2F)nc(C)c1C(=O)N[C@@H](CNC(=O)c1cccs1)C(=O)O [Example 70, (S)-2-({2-[3-(2-Fluoro-3-hydroxy-phenyl)-propylamino]-4,6-dimethyl-pyrimidine-5-carbonyl}-amino)-3-[(thiophene-2-carbonyl)-amino]-propionic acid]
224 | Cc1nc(NCCCc2cc(O)ccc2F)nc(C)c1C(=O)N[C@@H](CNC(=O)c1cccs1)C(=O)O [Example 71, (S)-2-({2-[3-(2-Fluoro-5-hydroxy-phenyl)-propylamino]-4,6-dimethyl-pyrimidine-5-carbonyl}-amino)-3-[(thiophene-2-carbonyl)-amino]-propionic acid]
159 | Cc1ccc(O)cc1CCCNc1nc(C)c(C(=O)N[C@@H](CNC(=O)c2cccs2)C(=O)O)c(C)n1 [Example 72, (S)-2-({2-[3-(2-Methyl-5-hydroxy-phenyl)-propylamino]-4,6-dimethyl-pyrimidine-5-carbonyl}-amino)-3-[(thiophene-2-carbonyl)-amino]-propionic acid]
64 | O=C(N[C@@H](CNC(=O)c1cccs1)C(=O)O)c1cnc(NCCCc2cccc(O)c2)nc1 [Example 75, (S)-2-({2-[3-(3-Hydroxy-phenyl)-propylamino]-pyrimidine-5-carbonyl}-amino)-3-[(thiophene-2-carbonyl)-amino]-propionic acid]
378 | O=C(NC[C@H](NC(=O)c1cnc(NCCCc2cccc(O)c2)nc1C(F)(F)F)C(=O)O)c1cccs1 [Example 77, (S)-2-({2-[3-(3-Hydroxy-phenyl)-propylamino]-4-trifluoromethyl-pyrimidine-5-carbonyl}-amino)-3-[(thiophene-2-carbonyl)-amino]-propionic acid]
90 | CCc1nc(NCCCc2cccc(O)c2)nc(CC)c1C(=O)N[C@@H](CNC(=O)c1cccs1)C(=O)O [Example 79, (S)-2-({4,6-Diethyl-2-[3-(3-hydroxy-phenyl)-propylamino]-pyrimidine-5-carbonyl}-amino)-3-[(thiophene-2-carbonyl)-amino]-propionic acid]
12 | Cc1nc(NCCCc2cccc(O)c2)nc(C)c1C(=O)N[C@@H](CNC(=O)c1ccsc1)C(=O)O [Example 85, (S)-2-({2-[3-(3-hydroxy-phenyl)-propylamino]-4,6-dimethyl-pyrimidine-5-carbonyl}-amino)-3-[(thiophene-3-carbonyl)-amino]-propionic acid]
78 | Cc1csc(C(=O)NC[C@H](NC(=O)c2c(C)nc(NCCCc3cccc(O)c3)nc2C)C(=O)O)c1 [Example 89, (S)-2-({2-[3-(3-hydroxy-phenyl)-propylamino]-4,6-dimethyl-pyrimidine-5-carbonyl}-amino)-3-[(4-methyl-thiophene-2-carbonyl)-amino]-propionic acid]
42 | Cc1ccsc1C(=O)NC[C@H](NC(=O)c1c(C)nc(NCCCc2cccc(O)c2)nc1C)C(=O)O [Example 91, (S)-2-({2-[3-(3-hydroxy-phenyl)-propylamino]-4,6-dimethyl-pyrimidine-5-carbonyl}-amino)-3-[(3-methyl-thiophene-2-carbonyl)-amino]-propionic acid]
265 | Cc1nc(NCCCc2cccc(O)c2)nc(C)c1C(=O)N[C@@H](CNC(=O)c1ccc(Cl)s1)C(=O)O [Example 95, (S)-3-[(5-Chloro-thiophene-2-carbonyl)-amino]-2-({2-[3-(3-hydroxy-phenyl)-propylamino]-4,6-dimethyl-pyrimidine-5-carbonyl}-amino)-propionic acid]

More lines, now with the values behind:

SMILES | IC50 [nM]
Cc1nc(NCCCc2cccc(O)c2)nc(C)c1C(=O)N[C@@H](CNC(=O)c1csc(-c2ccncc2)n1)C(=O)O (single isomer, unassigned) [Example 41] | 353
Cc1nc(NCc2ccccc2-c2cccc(O)c2)nc(C)c1C(=O)N[C@@H](CNC(=O)c1cccs1)C(=O)O [Example 12, (S)-2-({2-[(3′-hydroxy-biphenyl-2-ylmethyl)-amino]-4,6-dimethyl-pyrimidine-5-carbonyl}-amino)-3-[(thiophene-2-carbonyl)-amino]-propionic acid] | 191
Cc1nc(NCc2ccccc2-c2ccccc2O)nc(C)c1C(=O)N[C@@H](CNC(=O)c1cccs1)C(=O)O [Example 14, (S)-2-({2-[(2′-hydroxy-biphenyl-2-ylmethyl)-amino]-4,6-dimethyl-pyrimidine-5-carbonyl}-amino)-3-[(thiophene-2-carbonyl)-amino]-propionic acid] | 500
Cc1nc(NC2CCc3cc(O)ccc3C2)nc(C)c1C(=O)N[C@@H](CNC(=O)c1cccs1)C(=O)O (stereo partly drawn) [Example 17, (S) 2-(2-[6-hydroxy-1,2,3,4-tetrahydro-naphthalen-2-ylamino]-4,6-dimethyl-pyrimidine-5-carbonyl-amino)-3-[(thiophene-2-carbonyl)-amino]-propionic acid] | 309
Cc1nc(NC2CCc3cccc(O)c3C2)nc(C)c1C(=O)N[C@@H](CNC(=O)c1cccs1)C(=O)O (stereo partly drawn) [Example 18, (S) 2-(2-[8-hydroxy-1,2,3,4-tetrahydro-naphthalen-2-ylamino]-4,6-dimethyl-pyrimidine-5-carbonyl-amino)-3-[(thiophene-2-carbonyl)-amino]-propionic acid] | 48
Cc1nc(NCCCc2cccc(O)c2)nc(C)c1C(=O)N[C@@H](CNC(=O)c1ccccn1)C(=O)O [Example 42, (S)-2-({2-[3-(3-hydroxy-phenyl)-propylamino]-4,6-dimethyl-pyrimidine-5-carbonyl}-amino)-3-[(pyridine-2-carbonyl)-amino]-propionic acid] | 85
Cc1nc(C)c(C(=O)NC[C@H](NC(=O)c2c(C)nc(NCCCc3cccc(O)c3)nc2C)C(=O)O)s1 [Example 43, (S)-2-({2-[3-(3-hydroxy-phenyl)-propylamino]-4,6-dimethyl-pyrimidine-5-carbonyl}-amino)-3-[(2,4-dimethyl-thiazole-5-carbonyl)-amino]-propionic acid] | 128
Cc1nc(NCCCc2cccc(O)c2)nc(C)c1C(=O)N[C@@H](CNC(=O)CC1CCCCC1)C(=O)O [Example 44, (S)-2-({2-[3-(3-hydroxy-phenyl)-propylamino]-4,6-dimethyl-pyrimidine-5-carbonyl}-amino)-3-[1-cyclohexyl-acetylamino]-propionic acid] | 115
Cc1nc(NCCCc2cccc(O)c2)nc(C)c1C(=O)N[C@@H](CNC(=O)c1nccc2ccccc12)C(=O)O [Example 45, (S)-2-({2-[3-(3-hydroxy-phenyl)-propylamino]-4,6-dimethyl-pyrimidine-5-carbonyl}-amino)-3-[(isoquinoline-1-carbonyl)-amino]-propionic acid] | 87
Cc1nc(NCCCc2cccc(O)c2)nc(C)c1C(=O)N[C@@H](CNC(=O)c1csc(-c2ccncc2)n1)C(=O)O [Example 47, (S)-2-({2-[3-(3-hydroxy-phenyl)-propylamino]-4,6-dimethyl-pyrimidine-5-carbonyl}-amino)-3-[(2-pyridin-4-yl-thiazole-4-carbonyl)-amino]-propionic acid] | 70
Cc1nc(NCCCc2cccc(O)n2)nc(C)c1C(=O)N[C@@H](CNC(=O)c1cccs1)C(=O)O [Example 52, (S)-2-({2-[3-(6-Hydroxy-pyridin-2-yl)-propylamino]-4,6-dimethyl-pyrimidine-5-carbonyl}-amino)-3-[(thiophene-2-carbonyl)-amino]-propionic acid] | 1980
Cc1nc(NCCCc2ccc(F)c(O)c2)nc(C)c1C(=O)N[C@@H](CNC(=O)c1cccs1)C(=O)O [Example 65, (S)-2-({2-[3-(4-Fluoro-3-hydroxy-phenyl)-propylamino]-4,6-dimethyl-pyrimidine-5-carbonyl}-amino)-3-[(thiophene-2-carbonyl)-amino]-propionic acid] | 1300
Cc1nc(NCCCc2cccc(O)c2C)nc(C)c1C(=O)N[C@@H](CNC(=O)c1cccs1)C(=O)O [Example 66, (S)-2-({2-[3-(3-Hydroxy-2-methyl-phenyl)-propylamino]-4,6-dimethyl-pyrimidine-5-carbonyl}-amino)-3-[(thiophene-2-carbonyl)-amino]-propionic acid] | 111
